According to patent US5773573A, “HIV peptides” (priority 1994, dated 1998):
Residues, ends and D or L forms follow the SMILES beside them.

Assay: White cell and T cell subset counts (CD4, CD8, NK) in HIV infected patient given HEP1
Format: in vivo, human
Conditions: patient three
Procedure: The objective of this study was to determine in an HIV infected patient if the induction of immunological tolerance to HEP1 could reduce immune activation and HIV infection. The design of the first clinical experiment was to orally administer HEP1 to the patient in daily 10 mg doses (the lower end of the preferred dose range). This was then followed approximately three months later with a subcutaneous administration of HEP1 at a higher dose of 140 mg. To assess the therapeutic benefit of HEP1, the following disease progression markers were measured by taking blood samples before, during and after each trial and determining: HIV levels by a p24 antigen assay, HIV infectivity by a cellular TCID assay and immune activation by quantitating levels of various lymphocytes.
T cell subsets were measured by adding a whole blood sample to a 4.5 ml tube containing EDTA and staining with monoclonal antibodies to CD3, CD4 and CD8. The percentage of T cells in Peripheral Blood Lymphocytes were determined by flow-cytometric procedures. The numbers of CD4 and CD8 T cells were determined by obtaining total and differential white-cell counts and multiplying by the appropriate factor obtained on flow cytometry.
The following markers of HIV disease progression were assayed: p24Ag (the concentration of HIV p24 protein in picogram/ml in the blood), TCID (the infectivity of the HIV in the cells of blood sample measured by an in vitro cell culture assay in which a serial dilution of the sample was mixed with activated uninfected PBMC and the level of HIV infection determined by p24Ag assay), total white count (immune activation measured by the number of white cells per mm^3), CD4 (the number of CD4 positive cells per mm^3), CD8 (the number of CD8 positive cells per mm^3), NK (the number of Natural Killer cells per mm^3), Lymphocytes (the number of cells per mm^3), Monocytes (the number of cells per mm^3), and Granulocytes (the number of cells per mm^3). Normalised data was calculated by dividing each data point by the value of its data series on day 1 of the trail and multiplying by 100.

[1] = oral HEP1 10 mg daily day 2-22, day-69, before treatment
[2] = orally administered HEP1 10 mg daily
[3] = single subcutaneous HEP1 dose on day 1, day 1*, four hours after injection
[4] = single subcutaneous HEP1 dose on day 1, day 1, before injection
[5] = single subcutaneous HEP1 dose on day 1, day 6, after injection
[6] = single subcutaneous HEP1 dose on day 1, day-7, before treatment
[7] = single subcutaneous HEP1 dose on day 1, day-56, before treatment
[8] = single subcutaneous HEP1 dose on day 1, day-91, end of oral study
[9] = subcutaneous administration of one larger dose of HEP1

CC(C)[C@H](NC(=O)[C@@H](NC(=O)[C@H](CCC(=O)O)NC(=O)[C@H](CCCNC(=N)N)NC(=O)[C@H](CCCNC(=N)N)NC(=O)[C@H](CCCCN)NC(=O)[C@H](CCCCN)NC(=O)[C@H](CCC(=O)O)NC(=O)[C@@H](N)[C@@H](C)O)[C@@H](C)O)C(=O)N[C@@H](CCC(=O)O)C(=O)N[C@@H](CCCNC(=N)N)C(=O)N[C@@H](CCC(=O)O)C(=O)N[C@@H](CCCCN)C(=O)N[C@@H](CCC(=O)O)C(=O)O [HEP1, NH2 ThrGluLysLysArgArgGluThrValGluArgGluLysGluCOOH] (H-TEKKRRETVEREKE-OH)
NK, normalised data (day 1 = 100) [1]: 67
White count [1]: 7900 cells per mm^3
White count, normalised data (day 1 = 100) [1]: 96
CD4 count, course [2]: no significant increase
CD8, course [2]: increased during treatment
total white cell count, course (immune activation) [2]: fell during and after treatment and fall
% Granulocytes [3]: 55%
% Granulocytes, normalised data (day 1 = 100) [3]: 80
% Lymphocytes [3]: 33%
% Lymphocytes, normalised data (day 1 = 100) [3]: 142
% Monocytes [3]: 11%
% Monocytes, normalised data (day 1 = 100) [3]: 138
CD4 [3]: 120 cells per mm^3
CD4, normalised data (day 1 = 100) [3]: 150
CD8 [3]: 1130 cells per mm^3
CD8, normalised data (day 1 = 100) [3]: 128
Granulocytes [3]: 2530 cells per mm^3
Granulocytes, normalised data (day 1 = 100) [3]: 66
Lymphocytes [3]: 1520 cells per mm^3
Lymphocytes, normalised data (day 1 = 100) [3]: 118
Monocytes [3]: 510 cells per mm^3
Monocytes, normalised data (day 1 = 100) [3]: 113
NK [3]: 30 cells per mm^3
NK, normalised data (day 1 = 100) [3]: 267
White count [3]: 4600 cells per mm^3
White count, normalised data (day 1 = 100) [3]: 82
% Granulocytes [4]: 69%
% Granulocytes, normalised data (day 1 = 100) [4]: 100
% Lymphocytes [4]: 23.3%
% Lymphocytes, normalised data (day 1 = 100) [4]: 100
% Monocytes [4]: 8%
% Monocytes, normalised data (day 1 = 100) [4]: 100
CD4 [4]: 80 cells per mm^3
CD4, normalised data (day 1 = 100) [4]: 100
CD8 [4]: 880 cells per mm^3
CD8, normalised data (day 1 = 100) [4]: 100
Granulocytes [4]: 3860 cells per mm^3
Granulocytes, normalised data (day 1 = 100) [4]: 100
Lymphocytes [4]: 1290 cells per mm^3
Lymphocytes, normalised data (day 1 = 100) [4]: 100
Monocytes [4]: 450 cells per mm^3
Monocytes, normalised data (day 1 = 100) [4]: 100
NK [4]: 30 cells per mm^3
NK, normalised data (day 1 = 100) [4]: 100
White count [4]: 5600 cells per mm^3
White count, normalised data (day 1 = 100) [4]: 100
% Lymphocytes [5]: 22.2%
CD4 [5]: 80 cells per mm^3
CD4, normalised data (day 1 = 100) [5]: 100
CD8 [5]: 780 cells per mm^3
CD8, normalised data (day 1 = 100) [5]: 89
White count [5]: 5400 cells per mm^3
White count, normalised data (day 1 = 100) [5]: 96
% Granulocytes [6]: 81%
% Granulocytes, normalised data (day 1 = 100) [6]: 117
% Lymphocytes [6]: 12.9%
% Lymphocytes, normalised data (day 1 = 100) [6]: 55
% Monocytes [6]: 7%
% Monocytes, normalised data (day 1 = 100) [6]: 88
CD4 [6]: 70 cells per mm^3
CD4, normalised data (day 1 = 100) [6]: 88
CD8 [6]: 670 cells per mm^3
CD8, normalised data (day 1 = 100) [6]: 76
Granulocytes [6]: 6640 cells per mm^3
Granulocytes, normalised data (day 1 = 100) [6]: 172
Lymphocytes [6]: 980 cells per mm^3
Lymphocytes, normalised data (day 1 = 100) [6]: 76
Monocytes [6]: 570 cells per mm^3
Monocytes, normalised data (day 1 = 100) [6]: 127
NK [6]: 40 cells per mm^3
NK, normalised data (day 1 = 100) [6]: 133
White count [6]: 8200 cells per mm^3
White count, normalised data (day 1 = 100) [6]: 146
% Granulocytes [7]: 75%
% Granulocytes, normalised data (day 1 = 100) [7]: 109
% Lymphocytes [7]: 19%
% Lymphocytes, normalised data (day 1 = 100) [7]: 82
% Monocytes [7]: 6%
% Monocytes, normalised data (day 1 = 100) [7]: 75
CD4 [7]: 75 cells per mm^3
CD4, normalised data (day 1 = 100) [7]: 94
CD8 [7]: 880 cells per mm^3
CD8, normalised data (day 1 = 100) [7]: 100
Granulocytes [7]: 4950 cells per mm^3
Granulocytes, normalised data (day 1 = 100) [7]: 128
Lymphocytes [7]: 1250 cells per mm^3
Lymphocytes, normalised data (day 1 = 100) [7]: 97
Monocytes [7]: 400 cells per mm^3
Monocytes, normalised data (day 1 = 100) [7]: 89
NK [7]: 75 cells per mm^3
NK, normalised data (day 1 = 100) [7]: 250
White count [7]: 6600 cells per mm^3
White count, normalised data (day 1 = 100) [7]: 118
% Granulocytes [8]: 74.5%
% Granulocytes, normalised data (day 1 = 100) [8]: 108
% Lymphocytes [8]: 20%
% Lymphocytes, normalised data (day 1 = 100) [8]: 86
% Monocytes [8]: 5.5%
% Monocytes, normalised data (day 1 = 100) [8]: 69
CD4 [8]: 80 cells per mm^3
CD4, normalised data (day 1 = 100) [8]: 100
CD8 [8]: 730 cells per mm^3
CD8, normalised data (day 1 = 100) [8]: 83
Granulocytes [8]: 4020 cells per mm^3
Granulocytes, normalised data (day 1 = 100) [8]: 104
Lymphocytes [8]: 1050 cells per mm^3
Lymphocytes, normalised data (day 1 = 100) [8]: 81
Monocytes [8]: 440 cells per mm^3
Monocytes, normalised data (day 1 = 100) [8]: 98
NK [8]: 20 cells per mm^3
NK, normalised data (day 1 = 100) [8]: 67
White count [8]: 5500 cells per mm^3
White count, normalised data (day 1 = 100) [8]: 98
CD4 and CD8 T cells, course after the rise [9]: return to the pre-injection i levels six days later
rise in CD4 T cells after the HEP1 injection [9]: +50%
rise in CD8 T cells after the HEP1 injection [9]: +28%
CD4+ and CD8+ T cells, course (subcutaneous administration of one larger dose of HEP1 (FIG. 3)): sharp increase
